Measured values: the NIST ThermoML archive (doi:10.1016/j.jct.2003.11.008)

Assays:
[1] = excess molar enthalpy (molar enthalpy of mixing); xn = mol fraction of the nth substance listed; conditions: 318.15 K, 101.3 kPa, Liquid
[2] = xn = mol fraction of the nth substance listed; conditions: 318.15 K, 101.3 kPa, Liquid

CCCCCCCCCCCCCCC [pentadecane] + CCCCOC(C)=O
Conditions	excess molar enthalpy [kJ/mol]	excess molar volume [m3/mol]
[1], x2 = 0.0884	0.413	–
[1], x2 = 0.1775	0.75	–
[1], x2 = 0.2593	1.04	–
[1], x2 = 0.3266	1.21	–
[1], x2 = 0.3936	1.35	–
[1], x2 = 0.4468	1.42	–
[1], x2 = 0.4996	1.48	–
[1], x2 = 0.5472	1.49	–
[1], x2 = 0.5896	1.48	–
[1], x2 = 0.6217	1.44	–
[1], x2 = 0.6332	1.43	–
[1], x2 = 0.6756	1.35	–
[1], x2 = 0.7198	1.25	–
[1], x2 = 0.7661	1.12	–
[1], x2 = 0.8132	0.972	–
[1], x2 = 0.8631	0.781	–
[1], x2 = 0.9114	0.551	–
[1], x2 = 0.9607	0.282	–
[2], x2 = 0.1004	–	3.55e-07
[2], x2 = 0.1982	–	6.25e-07
[2], x2 = 0.2765	–	7.99e-07
[2], x2 = 0.3418	–	9.17e-07
[2], x2 = 0.417	–	9.97e-07
[2], x2 = 0.4757	–	1.034e-06
[2], x2 = 0.5299	–	1.057e-06
[2], x2 = 0.5843	–	1.052e-06
[2], x2 = 0.6319	–	1.024e-06
[2], x2 = 0.6767	–	9.8e-07
[2], x2 = 0.7173	–	9.26e-07
[2], x2 = 0.7606	–	8.62e-07
[2], x2 = 0.7836	–	8.17e-07
[2], x2 = 0.8619	–	5.97e-07
[2], x2 = 0.9208	–	3.91e-07
[2], x2 = 0.9647	–	1.72e-07

CCCCCCCCCCC [undecane] + CCCCOC(C)=O
Conditions	excess molar enthalpy [kJ/mol]	excess molar volume [m3/mol]
[1], x2 = 0.0677	0.335	–
[1], x2 = 0.1493	0.63	–
[1], x2 = 0.2299	0.88	–
[1], x2 = 0.3113	1.07	–
[1], x2 = 0.3836	1.18	–
[1], x2 = 0.4482	1.24	–
[1], x2 = 0.5078	1.26	–
[1], x2 = 0.5555	1.23	–
[1], x2 = 0.5708	1.22	–
[1], x2 = 0.6136	1.17	–
[1], x2 = 0.6586	1.11	–
[1], x2 = 0.7055	1.04	–
[1], x2 = 0.7534	0.941	–
[1], x2 = 0.7837	0.864	–
[1], x2 = 0.832	0.724	–
[1], x2 = 0.8778	0.563	–
[1], x2 = 0.9233	0.378	–
[1], x2 = 0.9637	0.192	–
[2], x2 = 0.0356	–	1.49e-07
[2], x2 = 0.0842	–	3.26e-07
[2], x2 = 0.1543	–	5.21e-07
[2], x2 = 0.2226	–	6.82e-07
[2], x2 = 0.288	–	7.97e-07
[2], x2 = 0.35	–	8.56e-07
[2], x2 = 0.407	–	9.28e-07
[2], x2 = 0.4636	–	9.43e-07
[2], x2 = 0.5172	–	9.66e-07
[2], x2 = 0.5676	–	9.44e-07
[2], x2 = 0.6153	–	9.27e-07
[2], x2 = 0.6613	–	8.79e-07
[2], x2 = 0.7042	–	8.17e-07
[2], x2 = 0.7392	–	7.75e-07
[2], x2 = 0.8289	–	5.74e-07
[2], x2 = 0.8978	–	3.84e-07
[2], x2 = 0.9408	–	2.33e-07

CCCCCOC(C)=O [pentyl ethanoate] + CCCCCCCCCCC
Conditions	excess molar enthalpy [kJ/mol]	excess molar volume [m3/mol]
[1], x1 = 0.083	0.359	–
[1], x1 = 0.1513	0.578	–
[1], x1 = 0.225	0.774	–
[1], x1 = 0.2965	0.926	–
[1], x1 = 0.3642	1.03	–
[1], x1 = 0.4271	1.08	–
[1], x1 = 0.4836	1.1	–
[1], x1 = 0.5356	1.1	–
[1], x1 = 0.5749	1.06	–
[1], x1 = 0.6055	1.03	–
[1], x1 = 0.6529	0.962	–
[1], x1 = 0.7058	0.876	–
[1], x1 = 0.7614	0.762	–
[1], x1 = 0.8186	0.627	–
[1], x1 = 0.8782	0.452	–
[1], x1 = 0.9384	0.258	–
[2], x1 = 0.0737	–	2.57e-07
[2], x1 = 0.1355	–	4.05e-07
[2], x1 = 0.2015	–	5.38e-07
[2], x1 = 0.2641	–	6.43e-07
[2], x1 = 0.3197	–	7.07e-07
[2], x1 = 0.3776	–	7.48e-07
[2], x1 = 0.4395	–	7.8e-07
[2], x1 = 0.4861	–	7.92e-07
[2], x1 = 0.5386	–	7.87e-07
[2], x1 = 0.5852	–	7.75e-07
[2], x1 = 0.6345	–	7.38e-07
[2], x1 = 0.6828	–	6.92e-07
[2], x1 = 0.713	–	6.43e-07
[2], x1 = 0.8089	–	4.89e-07
[2], x1 = 0.8864	–	3.26e-07
[2], x1 = 0.9483	–	1.64e-07

CCCCCCCCCCC [undecane] + COC(C)=O
Conditions	excess molar enthalpy [kJ/mol]	excess molar volume [m3/mol]
[1], x2 = 0.1	0.672	–
[1], x2 = 0.203	1.24	–
[1], x2 = 0.2975	1.7	–
[1], x2 = 0.3707	1.99	–
[1], x2 = 0.4315	2.16	–
[1], x2 = 0.4836	2.25	–
[1], x2 = 0.528	2.29	–
[1], x2 = 0.5612	2.29	–
[1], x2 = 0.5935	2.29	–
[1], x2 = 0.6178	2.28	–
[1], x2 = 0.6538	2.23	–
[1], x2 = 0.6915	2.16	–
[1], x2 = 0.7306	2.07	–
[1], x2 = 0.769	1.94	–
[1], x2 = 0.8102	1.75	–
[1], x2 = 0.851	1.55	–
[1], x2 = 0.888	1.25	–
[1], x2 = 0.9283	0.932	–
[1], x2 = 0.9664	0.521	–
[2], x2 = 0.1232	–	7.69e-07
[2], x2 = 0.2463	–	1.347e-06
[2], x2 = 0.3266	–	1.58e-06
[2], x2 = 0.3942	–	1.734e-06
[2], x2 = 0.4679	–	1.879e-06
[2], x2 = 0.5333	–	1.922e-06
[2], x2 = 0.5823	–	1.908e-06
[2], x2 = 0.6365	–	1.851e-06
[2], x2 = 0.68	–	1.765e-06
[2], x2 = 0.7221	–	1.676e-06
[2], x2 = 0.76	–	1.554e-06
[2], x2 = 0.7954	–	1.415e-06
[2], x2 = 0.8183	–	1.337e-06
[2], x2 = 0.8875	–	9.9e-07
[2], x2 = 0.935	–	6.43e-07
[2], x2 = 0.9683	–	3.52e-07

CCCCCCCCCCC [undecane] + CCCOC(C)=O
Conditions	excess molar enthalpy [kJ/mol]	excess molar volume [m3/mol]
[1], x2 = 0.0814	0.432	–
[1], x2 = 0.1501	0.722	–
[1], x2 = 0.2265	1	–
[1], x2 = 0.2928	1.21	–
[1], x2 = 0.3534	1.34	–
[1], x2 = 0.4082	1.43	–
[1], x2 = 0.4582	1.48	–
[1], x2 = 0.5031	1.5	–
[1], x2 = 0.5439	1.5	–
[1], x2 = 0.5841	1.48	–
[1], x2 = 0.6226	1.44	–
[1], x2 = 0.6441	1.39	–
[1], x2 = 0.6911	1.3	–
[1], x2 = 0.7407	1.19	–
[1], x2 = 0.7924	1.04	–
[1], x2 = 0.8458	0.828	–
[1], x2 = 0.8971	0.591	–
[1], x2 = 0.9495	0.327	–
[2], x2 = 0.0791	–	3.43e-07
[2], x2 = 0.1544	–	6e-07
[2], x2 = 0.2306	–	8.2e-07
[2], x2 = 0.2908	–	9.49e-07
[2], x2 = 0.3479	–	1.051e-06
[2], x2 = 0.4046	–	1.133e-06
[2], x2 = 0.4573	–	1.159e-06
[2], x2 = 0.51	–	1.176e-06
[2], x2 = 0.5596	–	1.185e-06
[2], x2 = 0.6019	–	1.165e-06
[2], x2 = 0.6553	–	1.125e-06
[2], x2 = 0.6903	–	1.077e-06
[2], x2 = 0.7637	–	9.27e-07
[2], x2 = 0.8486	–	6.89e-07
[2], x2 = 0.9127	–	4.52e-07
[2], x2 = 0.9592	–	2.26e-07

CCCCCCCCC [nonane] + CCOC(C)=O
Conditions	excess molar enthalpy [kJ/mol]	excess molar volume [m3/mol]
[1], x2 = 0.0596	0.364	–
[1], x2 = 0.131	0.718	–
[1], x2 = 0.2117	1.06	–
[1], x2 = 0.295	1.32	–
[1], x2 = 0.3664	1.51	–
[1], x2 = 0.436	1.65	–
[1], x2 = 0.4899	1.7	–
[1], x2 = 0.5447	1.71	–
[1], x2 = 0.5881	1.67	–
[1], x2 = 0.6166	1.63	–
[1], x2 = 0.629	1.6	–
[1], x2 = 0.6629	1.56	–
[1], x2 = 0.7061	1.45	–
[1], x2 = 0.752	1.34	–
[1], x2 = 0.7991	1.16	–
[1], x2 = 0.8421	0.984	–
[1], x2 = 0.8875	0.742	–
[1], x2 = 0.9312	0.492	–
[1], x2 = 0.9672	0.247	–
[2], x2 = 0.0916	–	4.94e-07
[2], x2 = 0.1769	–	8.53e-07
[2], x2 = 0.2442	–	1.049e-06
[2], x2 = 0.3108	–	1.228e-06
[2], x2 = 0.3462	–	1.289e-06
[2], x2 = 0.4363	–	1.418e-06
[2], x2 = 0.4938	–	1.446e-06
[2], x2 = 0.5469	–	1.447e-06
[2], x2 = 0.5934	–	1.426e-06
[2], x2 = 0.6418	–	1.361e-06
[2], x2 = 0.6869	–	1.292e-06
[2], x2 = 0.7308	–	1.202e-06
[2], x2 = 0.7614	–	1.142e-06
[2], x2 = 0.8417	–	8.49e-07
[2], x2 = 0.9044	–	5.78e-07
[2], x2 = 0.9558	–	2.94e-07
